Results: patent publication US5811444A, “Compositions for reducing abnormal stimulation of endothelin receptors and novel compounds” (Roussel Uclaf, priority 1994, dated 1998)

Tests used:
A receptor of endothelin = target: T1, A receptor of endothelin (Rattus norvegicus, UniProt P26684); assay: Study of the activity on the A receptor of endothelin (displacement of 125I Endothelin, rat heart ventricle membranes); format: binding; details: rat heart (ventricles) membranes, 25 °C, 60 minutes, pH 7.4, read-out: A receptor of endothelin IC/50
T1 construct: A membrane preparation is produced from the heart (ventricles) of a rat; from tissue; host or cells: rat heart ventricles, membranes
T1 sequence (P26684 21-426): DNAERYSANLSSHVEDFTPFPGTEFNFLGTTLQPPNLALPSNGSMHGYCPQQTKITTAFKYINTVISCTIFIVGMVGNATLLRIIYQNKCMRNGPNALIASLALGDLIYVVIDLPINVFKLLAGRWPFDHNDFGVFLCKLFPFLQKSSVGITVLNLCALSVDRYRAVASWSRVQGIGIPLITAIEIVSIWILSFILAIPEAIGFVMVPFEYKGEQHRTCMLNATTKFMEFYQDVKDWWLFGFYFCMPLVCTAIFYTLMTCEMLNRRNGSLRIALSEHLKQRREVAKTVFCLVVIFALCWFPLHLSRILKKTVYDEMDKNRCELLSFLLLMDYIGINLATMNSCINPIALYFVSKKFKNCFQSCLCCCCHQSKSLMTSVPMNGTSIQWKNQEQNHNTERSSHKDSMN
Description: STUDY OF THE ACTIVITY ON THE A RECEPTOR OF ENDOTHELIN
A membrane preparation is produced from the heart (ventricles) of a rat. The tissue is ground up in a POLYTRON in a 50 mM Tris buffer pH=7.4.
After 30 minutes at 25° C. (W.B.) the homogenate is centrifuged at 30000 g for 15 minutes (2 centrifugations with intermediate take up in the Tris buffer pH. 7.4).
(§1) The pellets are resuspended in an incubation buffer (25 mM Tris, 5 microg/ml pepstatin A, 3 microg/ml aprotinin, 0.1 mM PMSF, 3 mM EDTA, 1 mM EGTA pH 7.4).
(§2) 2 ml aliquots are distributed into hemolysis tubes and ^125 I Endothelin (approximately 50000 dpm/tube) and the product to be studied are added. (The product is first tested at 3×10^-5 M three times). When the tested product displaces more than 50% of the radioactivity specifically bound to the receptor, it is tested again according to a range of 7 concentrations so as to determine the concentration which inhibits the radioactivity specifically bound to the receptor by 50%. In this way the 50% inhibitory concentration is determined.
(§3) The non-specific bond is determined by the addition of 10^-6 M endothelin (three times). After incubation at 25° C. for 60 minutes, putting back in the water bath at 0° C., for 5 minutes, filtering under reduced pressure, rinsing with Tris buffer 7.4, the radioactivity is counted in the presence of scintillating Triton. […]

B receptor of endothelin = target: T2, B receptor of endothelin (Rattus norvegicus, UniProt P21451); assay: Study of the activity on the B receptor of endothelin (displacement of 125I Endothelin, rat posterior cortex plus cerebellum membranes); format: binding; details: 25 °C, 60 minutes, pH 7.4, read-out: B receptor of endothelin IC/50
T2 construct: A membrane preparation is produced from the posterior cortex plus cerebellum of a rat; from tissue; host or cells: rat posterior cortex plus cerebellum, membranes
T2 sequence (P21451 27-442): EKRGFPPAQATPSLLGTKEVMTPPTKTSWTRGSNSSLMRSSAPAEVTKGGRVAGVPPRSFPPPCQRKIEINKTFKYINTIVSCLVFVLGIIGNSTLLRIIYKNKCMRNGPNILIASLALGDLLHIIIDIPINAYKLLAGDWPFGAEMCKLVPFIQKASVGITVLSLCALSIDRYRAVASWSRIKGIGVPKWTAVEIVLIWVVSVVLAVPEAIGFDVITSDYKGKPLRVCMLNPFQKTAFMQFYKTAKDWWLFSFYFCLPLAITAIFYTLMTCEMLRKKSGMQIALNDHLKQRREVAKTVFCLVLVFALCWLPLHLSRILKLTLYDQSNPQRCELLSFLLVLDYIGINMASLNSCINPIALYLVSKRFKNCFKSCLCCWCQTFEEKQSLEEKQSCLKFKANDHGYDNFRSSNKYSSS
Description: STUDY OF THE ACTIVITY ON THE B RECEPTOR OF ENDOTHELIN
A membrane preparation is produced from the posterior cortex plus cerebellum of a rat. The tissue is ground up in a POLYTRON in a 50 mM Tris buffer pH=7.4.
After 30 minutes at 25° C. (W.B.) the homogenate is centrifuged at 30000 g for 15 minutes (2 centrifugations with intermediate take-up in the Tris buffer pH. 7.4).
as §1, §2, §3

IC50 (A receptor of endothelin) [nM] | IC50 (B receptor of endothelin) [nM] | SMILES
91 | 250 | CCCCc1nc(S(=O)(=O)c2ccc(OC)cc2)c(C(=O)O)n1Cc1cc2c(cc1Cl)OCO2 [Example 10, 2-butyl-1-((6-chloro-1,3-benzodioxol-5-yl)methyl)-4-((4-methoxyphenyl)sulphonyl)-1H-imidazole-5-carboxylic acid]
110 | 350 | COc1ccc(Sc2nc(C)n(Cc3cc4c(cc3Cl)OCO4)c2C(=O)O)cc1 [Example 21, 1-((6-chloro-1,3-benzodioxol-5-yl)methyl)-4-((4-methoxyphenyl)thio)-2-methyl-1H-imidazole-5-carboxylic acid]
